Results on eleven compounds are retold here after PubChem BioAssay (NCI).

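Values below derive from 48-hour exposures of cells grown in 96-well plates, with endpoints linearly interpolated between the two concentrations bracketing the appropriate inhibition level. At the GI50, growth is halved. Definition used: TGI = concentration required for complete inhibition of growth.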

Some test systems named below: SW-620 colon; MCF7 breast; HOP-92 NSCLC; SF-268 CNS; NCI-H23 lung; K-562 leukemia; RPMI-8226 leukemia; NCI-H522 lung; CCRF-CEM leukemia; MALME-3M melanoma; SF-539 CNS.
Holding throughout (test): inhibition of tumour cell growth, NCI panel, 48 h

For `COC(=O)c1cccc(NC(=O)Nc2ccc3oc(=O)c4ccccc4c3c2)c1`, the GI50 with SW-620 colon was above 100 µM; in the experiment on MCF7 breast, above 100 µM; with HOP-92 NSCLC, above 100 µM; with SF-268 CNS it was 3.5 µM; with NCI-H23 lung it was above 100 µM; in the experiment with K-562 leukemia, above 100 µM. For the same compound, the GI50 in the experiment with RPMI-8226 leukemia is 24.5 µM; in the experiment on NCI-H522 lung, 4.91 µM; with CCRF-CEM leukemia, 12.1 µM. Besides, the TGI with SW-620 colon, in the experiment with MCF7 breast, in the experiment on HOP-92 NSCLC, in the experiment on SF-268 CNS, with NCI-H23 lung and in the experiment with K-562 leukemia was above 100 µM in each case. The figures for the TGI in the experiment on RPMI-8226 leukemia, in the experiment with NCI-H522 lung and in the experiment on CCRF-CEM leukemia were above 100 µM, above 100 µM and 26.2 µM, respectively.
Take `CC(=O)OCc1nc(C#N)c(N)o1`: the TGI in the experiment on SW-620 colon, in the experiment with MCF7 breast, with HOP-92 NSCLC, in the experiment on SF-268 CNS, in the experiment on NCI-H23 lung and in the experiment on MALME-3M melanoma was above 100 µM throughout. Besides, the TGI with K-562 leukemia, in the experiment on RPMI-8226 leukemia, with NCI-H522 lung and in the experiment with CCRF-CEM leukemia was above 100 µM throughout.
`O=C(OCc1ccccc1)N1CCNCCNCC1`: the TGI in the experiment with SW-620 colon, in the experiment on MCF7 breast, with HOP-92 NSCLC, in the experiment with SF-268 CNS, in the experiment with NCI-H23 lung and with SF-539 CNS was above 100 µM in each case. Moreover, the TGI with K-562 leukemia, in the experiment on RPMI-8226 leukemia, in the experiment on NCI-H522 lung and in the experiment on CCRF-CEM leukemia was above 100 µM each time.
For the compound `CC(=O)c1ccc(-c2oc(-c3ccccc3)cc2-c2ccc3c(c2)OCO3)s1`, the TGI was above 100 µM in the experiment with SW-620 colon; above 100 µM with MCF7 breast; above 100 µM in the experiment with HOP-92 NSCLC; above 100 µM in the experiment on SF-268 CNS; 89.9 µM in the experiment with NCI-H23 lung; above 100 µM in the experiment with SF-539 CNS. The TGI in the experiment on K-562 leukemia was above 100 µM; in the experiment with RPMI-8226 leukemia it was above 100 µM; in the experiment on CCRF-CEM leukemia, 2.99 µM.
Consider `C#CCCCC(=C)C[C@H](OCc1ccccc1)[C@H]1OC(=O)[C@@H]1C`, for which the TGI is above 100 µM with SW-620 colon; above 100 µM in the experiment with MCF7 breast; above 100 µM with HOP-92 NSCLC; above 100 µM with SF-268 CNS; above 100 µM in the experiment on NCI-H23 lung; 68.5 µM in the experiment with SF-539 CNS. Moreover, the figures for the TGI in the experiment with RPMI-8226 leukemia and in the experiment on CCRF-CEM leukemia were 83.7 µM and above 100 µM, respectively.
For the compound `CC(=O)O[C@H]1C(=O)[C@@]2(C)C(C(OC(=O)c3ccccc3)[C@]3(O)CC(OC(=O)C(O)C(NC(=O)c4ccccc4)c4ccc(F)cc4)C(C)=C1C3(C)C)[C@]1(OC(C)=O)CO[C@@H]1C[C@@H]2O` (stereo not given in full), the TGI in the experiment on SW-620 colon was above 10 µM; in the experiment with MCF7 breast, above 10 µM; in the experiment with HOP-92 NSCLC it was above 10 µM; with SF-268 CNS, above 10 µM; with NCI-H23 lung it was above 10 µM; with SF-539 CNS, 0.00307 µM. Also, the TGI in the experiment on K-562 leukemia is above 10 µM; with RPMI-8226 leukemia, 2.09 µM; in the experiment on NCI-H522 lung, 1.34 µM; in the experiment with CCRF-CEM leukemia, above 10 µM.
With `COC(=O)c1cc(NC2OCC(OC(C)=O)C(OC(C)=O)C2OC(C)=O)nc(SC)c1C(=O)OC` (stereo not given), the TGI with SW-620 colon, in the experiment on MCF7 breast, with HOP-92 NSCLC, in the experiment on SF-268 CNS, in the experiment on NCI-H23 lung and in the experiment on SF-539 CNS was above 100 µM each time. For the same compound, the TGI in the experiment with RPMI-8226 leukemia, in the experiment with NCI-H522 lung and in the experiment on CCRF-CEM leukemia was above 100 µM in each case.
Consider `C1COC2SC3=C(SC(=C4SC5=C(SCCS5)S4)S3)SC2O1` (stereo not given), for which the TGI in the experiment with SW-620 colon, with MCF7 breast, in the experiment on HOP-92 NSCLC, in the experiment on SF-268 CNS, in the experiment with NCI-H23 lung and with MALME-3M melanoma was above 100 µM in each case. The TGI with SF-539 CNS, in the experiment on K-562 leukemia, in the experiment with NCI-H522 lung and in the experiment on CCRF-CEM leukemia was above 100 µM throughout.
Take `CO/C(=N/N1CC1C(F)(F)F)c1ccncc1` (stereo not given): the TGI in the experiment with MCF7 breast, with HOP-92 NSCLC, in the experiment with NCI-H23 lung, with MALME-3M melanoma, with K-562 leukemia and with RPMI-8226 leukemia was above 100 µM throughout. In addition, the TGI in the experiment with NCI-H522 lung and in the experiment with CCRF-CEM leukemia was above 100 µM in each case.
As for `CCOC(=O)c1ccc2c(c1)nc1n2C(c2c(F)cccc2F)SC1` (stereo not given), the TGI with SW-620 colon was above 100 µM; in the experiment on MCF7 breast, 74.6 µM; in the experiment on HOP-92 NSCLC it was above 100 µM; in the experiment on SF-268 CNS, above 100 µM; with NCI-H23 lung it was 77.3 µM; in the experiment on SF-539 CNS, 53.1 µM. Moreover, the TGI in the experiment with K-562 leukemia, in the experiment on RPMI-8226 leukemia and in the experiment with CCRF-CEM leukemia was above 100 µM each time.
As for `CC(C)[Si](OC12CCC(CC1O)CC2C(=O)O)(C(C)C)C(C)C` (stereo not given), the TGI in the experiment with SW-620 colon is 41.9 µM; with MCF7 breast it was 31.7 µM; in the experiment on HOP-92 NSCLC, 27.4 µM; with SF-268 CNS, 27.9 µM; in the experiment with NCI-H23 lung, 34.7 µM; in the experiment on SF-539 CNS, above 100 µM. For the same compound, the TGI in the experiment on K-562 leukemia is above 100 µM; in the experiment with RPMI-8226 leukemia, 58.3 µM; in the experiment with CCRF-CEM leukemia it was 70 µM.
